Laboratory results as given in patent US20230201313A1, “METHODS OF TREATING LEFT VENTRICLE HYPERTROPHY” (Amgen Inc., priority 2020, published 2023).
Entries after “also recorded” stand apart in the source; their conditions may differ.

Columns and labels:
[1] = test system: PTH; details: single intravenous dose, patients on hemodialysis; cited from earlier work
[2] = test system: FGF23; details: at 24 hours after a single 10 mg dose; cited from earlier work
[3] = test system: 1.25(OH)2 vitamin D; details: after a single 10 mg dose; cited from earlier work
[4] = test system: FGF23; test: Trial secondary endpoint: FGF23 blood levels; format: in vivo, human; details: 55 individuals, 12-month follow-up, FIGS. 4A-4B, versus alfacalcidol group
Source text: In FIGS. 4A-4B, the data on FGF23 blood levels for the subjects in each treatment group is shown. On average, 8 measurements were available throughout follow-up for each individual.
(§1) Outcomes measurements: Laboratory analyses: Biochemical data was collected prior to hemodialysis at baseline and periodically (e.g., intact PTH, calcium, phosphate, 25-OH-Vit-D, 1,25-(OH)2-Vit-D every two weeks during the first 10 weeks followed by measurements every 4 weeks; while intact FGF23, s-klotho, proBNP and pre+postdialysis TnT was measured in 8-week-intervals). Additionally, a RAAS fingerprint was conducted before start and at the end of the treatment phase. The RAAS fingerprint is a mass spectrometry-based quantification of angiotensin metabolites. […]
(§2) Intact PTH, calcium and phosphate were analyzed in serum samples using the Cobas assay (Roche, reference range of PTH: 15-65 pg/mL, calcium: 2.15-2.55 mmol/L, phosphate: 0.81-1.45 mmol/L). Vitamin D was measured using serum samples and a chemiluminescent-immunoassays (Diasorin, reference range of 1.25-(OH)2-VitD: 19.9-79.3 pg/mL; 25-OH-Vit-D 75-250 nmol/L). Ionized calcium was measured during every dialysis session (using blood gas analysis (ABL 800 Flex, Drott)). Intact FGF23 was analyzed in plasma samples using chemiluminescent—Immunoassays (DiaSorin, reference range 23.2-95.4 pg/mL). […]

[5] = test system: calcium; test: Trial secondary endpoint: calcium blood levels; format: in vivo, human; details: 55 individuals, 12-month follow-up, FIGS. 5A-5B, versus alfacalcidol group
Source text: In FIGS. 5A-5B, the calcium blood levels for the subjects in each treatment group is shown. On average, 17 measurements were available throughout follow-up for each individual.
as §1, §2

[6] = test system: maintenance hemodialysis patients with secondary hyperparathyroidism (SHPT) and LVH; test: Single blinded randomized 12-month trial, etelcalcetide vs alfacalcidol: left ventricular mass index (LVMI) by cardiac MRI; format: in vivo, human; details: for estimated adjusted mean difference in the change of LVMI: ANCOVA, 1 year vs baseline, etelcalcetide group compared to alfacalcidol group
Source text: For the study, 62 patients were recruited, of which 30 patients were randomized to treatment with alfacalcidol and 32 to treatment with etelcalcetide. During the course of the 12-month study, ten patients dropped out during follow-up. Data for the main outcome (left ventricular mass index, LVMI in g/m^2) was available for the patients at baseline (enrollment) and at the 1-year follow-up, except for three patients as noted in Example 1. FIG. 1A illustrates a flow chart of the study design. Turning now to FIGS. 2A-2B, data from the study is presented. […] Thus, the 10 patients who dropped out during the study are removed from the analysis. FIG. 2A is a boxplot of the unadjusted primary endpoint for the alfacalcidol and the etelcalcetide treatment groups. […] The unadjusted comparison of the primary endpoint by a 2-sample equal variances t-test yields a significant difference in LVMI change between the treatment groups (p=0.007156). Due to the non-normal distribution of the data, a non-parametric 2-sample Wilcoxon test was also performed to confirm the result (p=0.0006661). An analysis adjusted for the stratification of the randomization was conducted using an Analysis of Covariance (ANCOVA) with outcome variable “Change of LVMI” and using the randomization stratification factors (residual kidney function, center of recruitment) as well as the LVMI at baseline as covariates. […] The associated p-value was 0.00809, in accordance with the result of the unadjusted analysis. In another analysis of the data, referred to as in intention-to-treat analysis, all patients who were randomized for the study are included in the data analysis. Thus, for the 10 patients who dropped out during the study all available measurements are used at the time they were taken. Out of those, for the 3 patients without MRI measurements the outcome values are imputed (obtained as mean values from patients of the same medication group with stratification factors identical to the patient with missing data). Final data on the primary study endpoint, difference of LVMI (g/m^2) at 1 year and LVMI at baseline, for the 62 patients who were randomized for the study is shown in FIG. 2B. The unadjusted comparison of the primary endpoint by a 2-sample equal variances t-test yields a significant difference in LVMI change between the treatment groups (p=0.04691). However, due to the distribution of the data the non-parametric Wilcoxon test is deemed more reliable and confirms the results (p=0.006098). […] The associated p-value was 0.031, in accordance with the result of the unadjusted analysis. Study Overview: A single blinded randomized trial of twelve months to test the effects of etelcalcetide compared to alfacalcidol on LVH and cardiac fibrosis in maintenance hemodialysis patients with secondary hyperparathyroidism (SHPT) was conducted. Both treatment regimens were titrated to equally suppress SHPT. Patients treated three times weekly with hemodialysis for between about 3 months and about 3 years and with parathyroid hormone (PTH) levels ≥300 pg/ml and LVH were enrolled. The primary study endpoint was left ventricular mass index (LVMI) determined in g/m^2 at baseline and at 12 months by cardiac MRI (cMRI). […] Due to the strong association of volume overload and LVH, randomization was additionally stratified by residual kidney function and regular body composition monitoring was performed to control patients' volume status. […]

[7] = test system: PTH; details: Hansen et al. 2012; cited from earlier work
[8] = test system: FGF23; details: Hansen et al. 2012; cited from earlier work

| SMILES | duration of lowering of serum levels of PTH [1] | decrease of FGF23 levels [2] | effect on 1.25(OH)2 vitamin D levels [3] | FGF23 blood levels, overall measurements and longitudinal behavior [4] | calcium blood levels, overall measurements and longitudinal behavior [5] | Prevention of LVH progression ([6]; dialysis patients with sHPT, compared to alfacalcidol) | LVMI progression ([6]; dialysis patients with sHPT, compared to treatment with alfacalcidol) | estimated adjusted mean difference in the change of LVMI ([6]; intention-to-treat analysis (62 randomized patients), p=0.031) | effect on LVH and cardiac fibrosis ([6]; patients under maintenance hemodialysis, through a suppression of FGF23) | estimated adjusted mean difference in the change of LVMI ([6]; per-protocol analysis (52 patients who completed), p=0.00809) | decrease of PTH levels [7] | increase of FGF23 levels [8] |
| --- | --- | --- | --- | --- | --- | --- | --- | --- | --- | --- | --- | --- |
| CC(=O)N[C@H](CSSC[C@H](N)C(=O)O)C(=O)N[C@H](C)C(=O)N[C@H](CCCNC(=N)N)C(=O)N[C@H](CCCNC(=N)N)C(=O)N[C@H](CCCNC(=N)N)C(=O)N[C@H](C)C(=O)N[C@H](CCCNC(=N)N)C(N)=O [etelcalcetide, (2R)-3-[[(2S)-2-acetamido-3-[[(2R)-1-[[(2R) [[(2R)-1-[[(2R)-1-[[(2R)-1-[[(2R)-1-amino-5-(diaminomethydeneamino)-1-oxopentanyl]amino]-1-oxopropan-2-yl]amino]-5-(diaminomethydeneamino)-1-oxopentan-2-yl]amino]-5-(diaminomethydeneamino)-1-oxopentan-2-yl]amino]-5-(diaminomethydeneamino)-1-oxopentan-2-yl]amino]-1-oxopropan-2-yl]amino]-3-oxopropyl]disulfanyl]-2-aminopropanoic acid] | up to 72 hours | over 30% | little or no effect | lower values which were decreasing over time; also recorded: decreased FGF23 levels | lower values which were decreasing over time | 6-8% | prevented LVMI progression | −6.2 (95% confidence interval −11.72 to −0.71) g/m^2 | effectively ameliorates LVH and cardiac fibrosis | −8.2 (95% confidence interval −13.99 to −2.39) g/m^2 | – | – |
| C=C1/C(=C\C=C2/CCC[C@]3(C)[C@@H]([C@H](C)CCCC(C)C)CC[C@@H]23)C[C@@H](O)C[C@@H]1O [Alfacalcidol] | – | – | – | – | – | – | – | – | – | – | ≥ 30% | threefold |
